Results taken from ChEMBL document CHEMBL5244279, “Perspectives on SARS-CoV-2 Main Protease Inhibitors” (J Med Chem, 2021).

Experiments:
[1] = molecular target: T1, Replicase polyprotein 1ab (Severe acute respiratory syndrome coronavirus 2, UniProt P0DTD1); experiment: Inhibition of SARS CoV-2 Main protease using MCA-AVLQSGFR-Lys(DNP)-Lys-NH2 peptide as substrate by fluorescence based analysis
[2] = Binding affinity to SARS CoV N-terminal his-tagged Main protease using Dabcyl-KTSAVLQSGFRKME-Edan peptide as substrate by fluorescence based analysis; set-up: species or system Severe acute respiratory syndrome-related coronavirus
SARS-CoV-2 [3] = assay type: functional, organism-based, Vero E6; details: Severe acute respiratory syndrome coronavirus 2, Vero C1008
[4] = Cytotoxicity against cat CRFK cells assessed as reduction of cell viability; assay type: toxicity, cell-based, Felis catus
[5] = Cytotoxicity against mouse L929 cells assessed as reduction of cell viability; assay type: toxicity, cell-based
[6] = Cytotoxicity against human Huh-7 cells assessed as reduction of cell viability; assay type: toxicity, cell-based
SARS-CoV-2 [7] = assay type: functional, organism-based, Vero E6; details: Severe acute respiratory syndrome coronavirus 2, strain 107, Vero C1008
[8] = molecular target: T1, Replicase polyprotein 1ab; experiment: Inhibition of SARS CoV-2 Main protease incubated for 10 min by FRET assay

Structure (SMILES)	IC50 [1] [nM]	IC50 [8] [nM]	other results
Cc1ccc(-n2sc3ccccc3c2=O)cc1	330		
O=C(NCc1ccco1)c1ccc(-n2sc3ccccc3c2=O)cc1	380		
CCCNC(=O)c1ccc(-n2sc3ccccc3c2=O)cc1	230		
Cn1sc2ccccc2c1=O	780		
CCN(CC)c1ccc(C(=O)On2nnc3ccccc32)cc1			Ki [2]: 11.1 nM
C=CCn1sc2ccccc2c1=O	630		
O=c1[nH]sc2ccccc12	660		
CC(C)Cn1sc2ccccc2c1=O	480		
O=C(O)c1ccc(-n2[se]c3ccccc3c2=O)cc1	130		
COC(=O)c1ccc(-n2sc3ccccc3c2=O)cc1	360		
O=C(O)Cn1[se]c2ccccc2c1=O	410		
Nc1ccccc1-n1sc2ccccc2c1=O	130		
O=c1c2ccccc2sn1CCO	410		
O=c1c2ccccc2sn1-c1ccccc1	490		
O=C(O)CCn1[se]c2ccccc2c1=O	350		
O=C(On1nnc2ccccc21)c1cc2ccccc2[nH]1			Ki [2]: 12.3 nM
O=C[C@H](C[C@@H]1CCNC1=O)NC(=O)[C@H](Cc1ccccc1)NC(=O)/C=C/c1ccc(Cl)cc1F			IC50 (SARS-CoV-2 [3]): 200 nM
O=c1c2ccccc2[se]n1CCN1CCOCC1	240		
O=c1c2ccccc2[se]n1CCO	650		
CC(C)C[C@H](NC(=O)OCc1ccccc1)C(=O)N[C@H](C=O)C[C@@H]1CCNC1=O			CC50 [4]: […]; IC50 (SARS-CoV-2 [3]): 70 nM; CC50 [5]: […]; CC50 [6]: […]
CC(C)C[C@H](NC(=O)OCC1CCC(F)(F)CC1)C(=O)N[C@H](C=O)C[C@@H]1CCNC1=O			CC50 [4]: > 100000 nM; CC50 [5]: > 100000 nM; CC50 [6]: > 100000 nM
CN(C)c1ccc(/C=C/C(=O)N[C@@H](Cc2ccccc2)C(=O)N[C@H](C=O)C[C@@H]2CCNC2=O)cc1			IC50 (SARS-CoV-2 [3]): 500 nM
O=c1c2ccccc2sn1Cc1ccco1	110		Ki [1]: 78 nM

Structure (SMILES)	IC50 [1] [nM]	IC50 [8] [nM]	other results
CC(C)C[C@H](NC(=O)/C=C/c1ccccc1)C(=O)N[C@H](C=O)C[C@@H]1CCNC1=O			IC50 (SARS-CoV-2 [3]): 830 nM
O=C[C@H](C[C@@H]1CCNC1=O)NC(=O)[C@@H]1[C@H]2CCC[C@H]2CN1C(=O)CCc1cc(F)cc(F)c1			EC50 (SARS-CoV-2 [7]): 5630 nM
O=C[C@H](C[C@@H]1CCNC1=O)NC(=O)[C@@H]1[C@H]2CCC[C@H]2CN1C(=O)COc1ccc(Cl)c(Cl)c1		30	EC50 (SARS-CoV-2 [7]): 830 nM
CC(C)C[C@H](NC(=O)OC1CCCCC1)C(=O)N[C@H](C=O)C[C@@H]1CCNC1=O			CC50 [4]: > 100000 nM; IC50 (SARS-CoV-2 [3]): 3900 nM; CC50 [5]: > 100000 nM; CC50 [6]: > 100000 nM
COc1ccc(OCC(=O)N2C[C@H]3[C@@H]([C@H]2C(=O)N[C@H](C=O)C[C@@H]2CCNC2=O)C3(C)C)cc1OC		14.5	EC50 (SARS-CoV-2 [7]): 1730 nM
CC1(C)[C@@H]2[C@@H](C(=O)N[C@H](C=O)C[C@@H]3CCNC3=O)N(C(=O)COc3ccc(F)c(F)c3)C[C@@H]21		13.2	EC50 (SARS-CoV-2 [7]): 5570 nM
CNc1ccc(C(=O)On2nnc3ccccc32)cc1			Ki [2]: 12.1 nM
CC(C)(C)OC(=O)NCn1[se]c2ccccc2c1=O	330		
CC1(C)[C@@H]2[C@@H](C(=O)N[C@H](C=O)C[C@@H]3CCNC3=O)N(C(=O)COc3cc(F)cc(F)c3)C[C@@H]21		18.5	EC50 (SARS-CoV-2 [7]): 1640 nM
O=C[C@H](C[C@@H]1CCNC1=O)NC(=O)[C@@H]1[C@H]2CCC[C@H]2CN1C(=O)c1cccnc1		748	
CCCCNC(=O)c1ccc(-n2sc3ccccc3c2=O)cc1	910		
COc1ccc(OC(C)C(=O)N2C[C@@H]3CCC[C@@H]3[C@H]2C(=O)N[C@H](C=O)C[C@@H]2CCNC2=O)cc1 (stereo partly drawn)		69.1	
CN(C)c1ccc(CCC(=O)N2C[C@@H]3CCC[C@@H]3[C@H]2C(=O)N[C@H](C=O)C[C@@H]2CCNC2=O)cc1		378	
O=C[C@H](C[C@@H]1CCNC1=O)NC(=O)[C@@H]1[C@H]2CCC[C@H]2CN1C(=O)COc1ccc(Cl)cc1			EC50 (SARS-CoV-2 [7]): 670 nM
CC1(C)[C@@H]2[C@@H](C(=O)N[C@H](C=O)C[C@@H]3CCNC3=O)N(C(=O)CCc3cccc(F)c3)C[C@@H]21		16.5	EC50 (SARS-CoV-2 [7]): 2230 nM
O=C[C@H](C[C@@H]1CCNC1=O)NC(=O)[C@@H]1[C@H]2CCC[C@H]2CN1C(=O)CCc1cccc(F)c1			EC50 (SARS-CoV-2 [7]): 2970 nM
CC1(C)[C@@H]2[C@@H](C(=O)N[C@H](C=O)C[C@@H]3CCNC3=O)N(C(=O)COc3ccc(Cl)cc3)C[C@@H]21		19	EC50 (SARS-CoV-2 [7]): 530 nM
CCCC1CCC(OC(=O)N[C@@H](CC(C)C)C(=O)N[C@H](C=O)C[C@@H]2CCNC2=O)CC1 (stereo partly drawn)			CC50 [4]: > 100000 nM; CC50 [5]: > 100000 nM; CC50 [6]: > 100000 nM
O=c1c2ccccc2sn1CCCCc1ccccc1	410		
O=C[C@H](C[C@@H]1CCNC1=O)NC(=O)[C@@H]1[C@H]2CCC[C@H]2CN1C(=O)CCc1ccc(F)c(F)c1		17.4	EC50 (SARS-CoV-2 [7]): 30500 nM
O=C[C@H](C[C@@H]1CCNC1=O)NC(=O)[C@@H]1[C@H]2CCC[C@H]2CN1C(=O)c1cc2ccccc2[nH]1		153	
COc1ccc(OCC(=O)N2C[C@@H]3CCC[C@@H]3[C@H]2C(=O)N[C@H](C=O)C[C@@H]2CCNC2=O)cc1		36.2	EC50 (SARS-CoV-2 [7]): 24700 nM
CCCn1sc2ccccc2c1=O	730		

Structure (SMILES)	IC50 [1] [nM]	IC50 [8] [nM]	other results
O=C[C@H](C[C@@H]1CCNC1=O)NC(=O)[C@H](Cc1ccccc1)NC(=O)/C=C/c1cccc(Br)c1			IC50 (SARS-CoV-2 [3]): 700 nM
COc1ccc(/C=C/C(=O)N2C[C@@H]3CCC[C@@H]3[C@H]2C(=O)N[C@H](C=O)C[C@@H]2CCNC2=O)c(OC)c1		196	
O=C[C@H](C[C@@H]1CCNC1=O)NC(=O)[C@@H]1[C@H]2CCC[C@H]2CN1C(=O)COc1ccc2c(c1)OCCO2		93.5	
CC1(C)[C@@H]2[C@@H](C(=O)N[C@H](C=O)C[C@@H]3CCNC3=O)N(C(=O)COc3ccc(Br)cc3Cl)C[C@@H]21		13.3	EC50 (SARS-CoV-2 [7]): 1180 nM
O=c1c2ccccc2[se]n1-c1cccc([N+](=O)[O-])c1	150		
CC1(C)[C@@H]2[C@@H](C(=O)N[C@H](C=O)C[C@@H]3CCNC3=O)N(C(=O)c3ccc4ccccc4c3)C[C@@H]21		453	
CN(C)c1ccc(/C=C/C(=O)N2C[C@@H]3CCC[C@@H]3[C@H]2C(=O)N[C@H](C=O)C[C@@H]2CCNC2=O)cc1		375	
CCCCC1CCC(OC(=O)N[C@@H](CC(C)C)C(=O)N[C@H](C=O)C[C@@H]2CCNC2=O)CC1 (stereo partly drawn)			CC50 [4]: 63300 nM; IC50 (SARS-CoV-2 [3]): 900 nM; CC50 [5]: 63300 nM; CC50 [6]: 63300 nM
CC1(C)[C@@H]2[C@@H](C(=O)N[C@H](C=O)C[C@@H]3CCNC3=O)N(C(=O)COc3cccc(C(F)(F)F)c3)C[C@@H]21		43.3	EC50 (SARS-CoV-2 [7]): 17000 nM
COc1ccc(OCC(=O)N2C[C@H]3[C@@H]([C@H]2C(=O)N[C@H](C=O)C[C@@H]2CCNC2=O)C3(C)C)cc1F		37.2	EC50 (SARS-CoV-2 [7]): 4680 nM
O=C[C@H](C[C@@H]1CCNC1=O)NC(=O)[C@@H]1[C@H]2CCC[C@H]2CN1C(=O)/C=C/c1ccccc1		526	
CC1(C)[C@@H]2[C@@H](C(=O)N[C@H](C=O)C[C@@H]3CCNC3=O)N(C(=O)COc3ccc(Cl)c(Cl)c3)C[C@@H]21		12.4	EC50 (SARS-CoV-2 [7]): 2080 nM
CC1(C)[C@@H]2[C@@H](C(=O)N[C@H](C=O)C[C@@H]3CCNC3=O)N(C(=O)COc3ccc4ccccc4c3)C[C@@H]21		52.1	
CC1(C)[C@@H]2[C@@H](C(=O)N[C@H](C=O)C[C@@H]3CCNC3=O)N(C(=O)COc3ccc(Br)c(Cl)c3)C[C@@H]21		50.8	
Cc1cc(Cl)ccc1OCC(=O)N1C[C@@H]2CCC[C@@H]2[C@H]1C(=O)N[C@H](C=O)C[C@@H]1CCNC1=O		19.7	EC50 (SARS-CoV-2 [7]): 1500 nM
CCCC1CCC(OC(=O)N[C@@H](CC(C)C)C(=O)N[C@@H](C[C@@H]2CCNC2=O)C(O)S(=O)(=O)O)CC1 (stereo partly drawn)			CC50 [4]: > 100000 nM; CC50 [5]: > 100000 nM; CC50 [6]: > 100000 nM
CC1(C)[C@@H]2[C@@H](C(=O)N[C@H](C=O)C[C@@H]3CCNC3=O)N(C(=O)COc3ccc(Cl)cc3Cl)C[C@@H]21		13	EC50 (SARS-CoV-2 [7]): 660 nM
O=C[C@H](C[C@@H]1CCNC1=O)NC(=O)[C@@H]1[C@H]2CCC[C@H]2CN1C(=O)c1cc2ccccn2n1		299	
O=C[C@H](C[C@@H]1CCNC1=O)NC(=O)[C@@H]1[C@H]2CCC[C@H]2CN1C(=O)COc1ccc(Cl)cc1F		34.7	EC50 (SARS-CoV-2 [7]): 1650 nM
O=c1c2ccccc2sn1-c1ccc(Cl)cc1	390		
O=c1c2ccccc2sn1Cc1ccccc1	170		
